This passage reports Ki, Ratio Ki and EC50 results from ChEMBL document CHEMBL1146992, “Identification of potent phenyl imidazoles as opioid receptor agonists” (Bioorg Med Chem Lett, 2006).

Assay [1] addresses Mu-type opioid receptor (Rattus norvegicus, UniProt P33535). Put plainly: Displacement of [3H]DAMGO from mu opioid receptor in rat brain. It is filed as tissue-based. Background: Loss of bound radioactivity is the signal in a displacement assay; it reports binding, not function.
Assay [2] addresses Delta-type opioid receptor (Rattus norvegicus, UniProt P33533). Put plainly: Displacement of [3H]DPDPE from delta opioid receptor in rat brain. It is filed as tissue-based.
The target of assay [3] is Opioid receptors; mu & delta (Rattus norvegicus) (UniProt P33533+P33535). Put plainly: Selectivity for delta opioid receptor over mu opioid receptor. It is filed as protein assay.
Assay [4] addresses Delta-type opioid receptor (Mus musculus, UniProt P32300). Put plainly: Activity against delta opioid receptor by stimulation of [35S]GTP-gamma-S binding in CHO-hgamma cells. It is filed as functional, cell-based. (GTPγS is a poorly hydrolysed GTP analogue; its binding reports G protein activation.)
Assay [5] addresses Mu-type opioid receptor (Cavia porcellus, UniProt P97266). Put plainly: Activity against mu opioid receptor by stimulation of [35S]GTP-gamma-S binding in CHO-hgamma cells. It is filed as functional, cell-based.

The structures appear in SMILES notation.

Sequence of Delta-type opioid receptor (Mus musculus, UniProt P32300) (P32300 whole entry): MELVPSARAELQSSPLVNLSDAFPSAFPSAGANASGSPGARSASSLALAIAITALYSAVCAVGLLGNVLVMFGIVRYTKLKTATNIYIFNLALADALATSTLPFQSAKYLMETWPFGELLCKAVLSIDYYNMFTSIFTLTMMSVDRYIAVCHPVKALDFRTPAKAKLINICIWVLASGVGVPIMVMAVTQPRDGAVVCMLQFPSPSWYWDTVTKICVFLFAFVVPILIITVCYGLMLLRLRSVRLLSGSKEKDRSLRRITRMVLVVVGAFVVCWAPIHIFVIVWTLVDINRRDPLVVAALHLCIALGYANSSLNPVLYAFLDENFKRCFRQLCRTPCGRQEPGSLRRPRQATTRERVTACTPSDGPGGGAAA
Sequence of Mu-type opioid receptor (Rattus norvegicus, UniProt P33535) (P33535 whole entry): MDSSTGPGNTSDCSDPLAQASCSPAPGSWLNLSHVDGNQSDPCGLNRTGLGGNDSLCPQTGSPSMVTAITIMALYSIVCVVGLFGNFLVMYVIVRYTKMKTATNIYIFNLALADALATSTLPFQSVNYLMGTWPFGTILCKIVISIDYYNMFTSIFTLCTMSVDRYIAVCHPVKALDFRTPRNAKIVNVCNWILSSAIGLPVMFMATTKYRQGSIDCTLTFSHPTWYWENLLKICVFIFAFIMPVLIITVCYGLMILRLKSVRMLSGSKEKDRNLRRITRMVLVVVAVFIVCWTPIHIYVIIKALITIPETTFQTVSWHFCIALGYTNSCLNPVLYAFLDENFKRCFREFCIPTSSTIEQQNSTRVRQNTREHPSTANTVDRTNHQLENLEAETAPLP
Sequence of Mu-type opioid receptor (Cavia porcellus, UniProt P97266) (P97266 whole entry): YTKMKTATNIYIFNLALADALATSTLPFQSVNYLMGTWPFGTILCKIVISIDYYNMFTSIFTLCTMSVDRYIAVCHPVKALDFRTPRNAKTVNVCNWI
Sequence of Delta-type opioid receptor (Rattus norvegicus, UniProt P33533) (P33533 whole entry): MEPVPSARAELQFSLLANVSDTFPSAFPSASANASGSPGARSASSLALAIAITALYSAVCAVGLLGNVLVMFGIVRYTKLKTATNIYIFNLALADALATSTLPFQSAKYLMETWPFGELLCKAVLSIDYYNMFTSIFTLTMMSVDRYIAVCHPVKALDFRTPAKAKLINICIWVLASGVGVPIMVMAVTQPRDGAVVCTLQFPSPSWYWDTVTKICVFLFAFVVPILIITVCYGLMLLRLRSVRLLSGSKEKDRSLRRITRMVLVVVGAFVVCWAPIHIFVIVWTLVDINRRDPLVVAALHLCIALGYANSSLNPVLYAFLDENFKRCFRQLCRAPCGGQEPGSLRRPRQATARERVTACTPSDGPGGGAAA
Sequence of Opioid receptors; mu & delta (Rattus norvegicus) (P33533 whole entry, looked up): as the sequence (P33533 whole entry) above
Sequence of Opioid receptors; mu & delta (Rattus norvegicus) (P33535 whole entry, looked up): as the sequence (P33535 whole entry) above

For the molecule `N[C@@H](Cc1ccc(C(=O)O)cc1)C(=O)N1Cc2ccccc2C[C@H]1c1nc(-c2ccccc2)c[nH]1`, the inhibitory constant (Ki) – broadly, the dissociation constant of the complex between target and ligand, obtained from inhibition or displacement – on Mu-type opioid receptor [1] was found to be 5800 nM; in assay [2] it was 5200 nM. The Ratio Ki in assay [3] amounted to 1.1.

On to `N[C@@H](Cc1ccccc1)C(=O)N1Cc2ccccc2C[C@H]1c1nc(-c2ccccc2)c[nH]1`, for which the Ki amounted to 443 nM at Mu-type opioid receptor [1] and 266 nM in assay [2]. The Ratio Ki in assay [3] stood at 1.7.

Regarding `Cc1cc(O)cc(C)c1C[C@H](N)C(=O)N1Cc2ccccc2C[C@H]1c1nc(C)c(-c2ccccc2)[nH]1`, the Ratio Ki in assay [3] turned out to be 3.2.

As for `COc1ccc(C[C@H](N)C(=O)N2Cc3ccccc3C[C@H]2c2nc(C)c(-c3ccccc3)[nH]2)cc1`, the Ratio Ki in assay [3] came to 6.4.

For the molecule `CS(=O)(=O)Nc1ccc(C[C@H](N)C(=O)N2Cc3ccccc3C[C@H]2c2nc(-c3ccccc3)c[nH]2)cc1`, the inhibition constant Ki at Mu-type opioid receptor [1] came to 356 nM; in assay [2] it was 342 nM. Moreover, the Ratio Ki in assay [3] turned out to be 1.

Turning to `N[C@@H](Cc1ccccc1)C(=O)N1CCCC[C@H]1c1nc(-c2ccccc2)c[nH]1`, the values for the Ki (at Mu-type opioid receptor [1]; in assay [2]) were 18 nM and 1130 nM, respectively. Also, in assay [3], the Ratio Ki was determined as 0.02.

As to `Cc1cc(O)cc(C)c1C[C@H](N)C(=O)N1Cc2ccccc2C[C@H]1c1nc(-c2ccccc2)c[nH]1`, the EC50 (as a rule, the concentration giving half of the maximal effect) in assay [4] was found to be 0.9 nM; at Mu-type opioid receptor [5], 27 nM. Besides, the Ki on Mu-type opioid receptor [1] is 0.3 nM; in assay [2], 0.1 nM. Moreover, the Ratio Ki in assay [3] was 3.2.

For `Cc1cc(O)cc(C)c1C[C@H](N)C(=O)N1CCCC[C@H]1c1nc(-c2ccccc2)c[nH]1`, the 50% effective concentration (EC50) in assay [4] turned out to be 37 nM; at Mu-type opioid receptor [5] it was 2 nM. The inhibitory constant (Ki) on Mu-type opioid receptor [1] came to 0.05 nM; in assay [2] it was 1.9 nM. In addition, the Ratio Ki in assay [3] was 0.03.

Take `Cc1[nH]c([C@@H]2Cc3ccccc3CN2C(=O)[C@@H](N)Cc2ccc(C#N)cc2)nc1-c1ccccc1`: the values for the Ki (on Mu-type opioid receptor [1]; in assay [2]) were 1340 nM and 752 nM, respectively. For the same molecule, the Ratio Ki in assay [3] came out at 1.8.

For the molecule `N[C@@H](Cc1ccc(O)cc1)C(=O)N1CCCC[C@H]1c1nc(-c2ccccc2)c[nH]1`, the Ki is 3.8 nM at Mu-type opioid receptor [1] and 198 nM in assay [2]. Further, the Ratio Ki in assay [3] is 0.02.

As for `Cc1[nH]c([C@@H]2CCCCN2C(=O)[C@@H](N)Cc2ccc(O)cc2)nc1-c1ccccc1`, the figures for the EC50 (in assay [4]; at Mu-type opioid receptor [5]) were 500 nM and 142 nM, respectively. For the same molecule, in assay [3], the Ratio Ki stood at 0.1.

Regarding `N[C@@H](Cc1ccc(Cl)cc1)C(=O)N1Cc2ccccc2C[C@H]1c1nc(-c2ccccc2)c[nH]1`, the Ratio Ki in assay [3] was 4.6.

With `Cc1cc(C(N)=O)cc(C)c1C[C@H](N)C(=O)N1Cc2ccccc2C[C@H]1c1nc(-c2ccccc2)c[nH]1`, the values for the EC50 (in assay [4]; at Mu-type opioid receptor [5]) were 22 nM and 161 nM, respectively. Also, the Ki on Mu-type opioid receptor [1] came to 1.4 nM.

As for `Cc1[nH]c([C@@H]2Cc3ccccc3CN2C(=O)[C@@H](N)Cc2ccc(N)cc2)nc1-c1ccccc1`, the Ratio Ki in assay [3] was found to be 9.

Regarding `Cc1[nH]c([C@@H]2Cc3ccccc3CN2C(=O)[C@@H](N)Cc2ccc(F)cc2)nc1-c1ccccc1`, the Ratio Ki in assay [3] stood at 19.

For the molecule `NC(=O)c1ccc(C[C@H](N)C(=O)N2Cc3ccccc3C[C@H]2c2nc(-c3ccccc3)c[nH]2)cc1`, the EC50 was 3 nM in assay [4] and 155 nM at Mu-type opioid receptor [5]. For the same molecule, the inhibitory constant (Ki) on Mu-type opioid receptor [1] worked out at 23 nM; in assay [2], 1.3 nM. For the same molecule, in assay [3], the Ratio Ki turned out to be 18.4.

With `Cc1cc(C(N)=O)cc(C)c1C[C@H](N)C(=O)N1CCCC[C@H]1c1nc(-c2ccccc2)c[nH]1`, the EC50 in assay [4] is 135 nM; at Mu-type opioid receptor [5], 9 nM. In addition, the Ki amounted to 0.13 nM at Mu-type opioid receptor [1] and 14 nM in assay [2].

In the case of `N[C@@H](Cc1ccc(O)cc1)C(=O)N1Cc2ccccc2C[C@H]1c1nc(-c2ccccc2)c[nH]1`, the concentration for a half-maximal effect (EC50) in assay [4] came out at 19 nM. Moreover, the Ratio Ki in assay [3] is 63.

In the case of `N[C@@H](Cc1ccc(S(N)(=O)=O)cc1)C(=O)N1Cc2ccccc2C[C@H]1c1nc(-c2ccccc2)c[nH]1`, the Ratio Ki in assay [3] was found to be 3.4.

Consider `Cc1[nH]c([C@@H]2Cc3ccccc3CN2C(=O)[C@@H](N)Cc2ccc(O)cc2)nc1-c1ccccc1`, for which, in assay [3], the Ratio Ki worked out at 75.

For `NC(=O)c1ccc(C[C@H](N)C(=O)N2CCCC[C@H]2c2nc(-c3ccccc3)c[nH]2)cc1`, the EC50 in assay [4] is 730 nM; at Mu-type opioid receptor [5], 100 nM. The affinity at Mu-type opioid receptor [1] corresponds to a Ki of 1.2 nM. Further, the Ratio Ki in assay [3] was 0.02.

With `CC(=O)Nc1ccc(C[C@H](N)C(=O)N2Cc3ccccc3C[C@H]2c2nc(C)c(-c3ccccc3)[nH]2)cc1`, the Ratio Ki in assay [3] is 6.

Consider `N[C@@H](Cc1ccc(CO)cc1)C(=O)N1Cc2ccccc2C[C@H]1c1nc(-c2ccccc2)c[nH]1`, for which the inhibition constant (Ki) on Mu-type opioid receptor [1] is 912 nM; in assay [2], 466 nM. Further, the Ratio Ki in assay [3] turned out to be 2.

`CC(=O)c1ccc(C[C@H](N)C(=O)N2Cc3ccccc3C[C@H]2c2nc(-c3ccccc3)c[nH]2)cc1` yielded an inhibition constant (Ki) in assay [2] of 30 nM. Besides, the Ratio Ki in assay [3] came out at 14.

With `Cc1cc(O)cc(C)c1C[C@H](N)C(=O)N1Cc2ccccc2C[C@H]1c1nc(-c2ccccc2)c(C)[nH]1`, the inhibition constant Ki on Mu-type opioid receptor [1] was found to be 0.3 nM; in assay [2], 0.1 nM.

For `Cc1[nH]c([C@@H]2Cc3ccccc3CN2C(=O)[C@@H](N)Cc2ccccc2)nc1-c1ccccc1`, the Ki on Mu-type opioid receptor [1] was 1830 nM; in assay [2] it was 236 nM. The Ratio Ki in assay [3] is 8.
